Measured values reported in US12239719B2, “Fluorochemical targeted therapies” (MT RESEARCH, LLC, priority 2016, dated 2025).

Legend:
[1] = system: metastatic pulmonary osteosarcoma; test: Aerosol treatment of dog with metastatic pulmonary osteosarcoma; format: in vivo; details: control dogs (n=50), gemcitabine alone
Procedure: A dog with extensive metastatic pulmonary osteosarcoma was treated with 60% perflubron emulsion (PFCE) containing 9 mg/mL gemcitabine (GCB) (PFCE-GCB=1000 mg GCB in 110 mL 60% perflubron emulsion). Aerosolized PFCE-GCB was delivered to the lungs of the dog twice weekly using an AeroTech™ II nebulizer (Biodex Medical Systems, Inc., Shirley, NY).
Treatment was discontinued at 6 months.
Control dogs (n=50) received gemcitabine alone.

[2] = oral (drink); cited from earlier work

**Q.** With `Nc1ccn([C@@H]2O[C@H](CO)[C@@H](O)C2(F)F)c(=O)n1` [gemcitabine] as the molecule, how does the durable tumor eradication [1] read?
**A.** Its durable tumor eradication is “tumors returned in all control cases”.

**Q.** For `COC(=O)c1ccc2c(c1)NC(=O)/C2=C(\Nc1ccc(N(C)C(=O)CN2CCN(C)CC2)cc1)c1ccccc1` [nintedanib], which fraction absorbed [2] is on record?
**A.** The fraction absorbed was 5%.
